Format in all cases: biochemical
Experiment [1] concerns the target T1, rAaeUPO-PaDa-I-H (unspecific peroxygenase) (Cyclocybe aegerita, UniProt B9W4V6, F354L/I291V/L110F/V100A/V118I).
T1 construct: gene APO1; recombinant, expressed in Pichia pastoris, C-terminal histidine tag
Kind of experiment: competition-based 5-nitro-1,3-benzodioxole peroxygenase assay.

The target of experiment [2] is T1, rAaeUPO-PaDa-I-H (unspecific peroxygenase). Kind of experiment: competition-based 5-nitro-1,3-benzodioxole peroxygenase assay; also converted to (R)-alcohol […].
For experiment [3] the target is unchanged. The experiment is described as above. This is another data set of the same source.

The results in this text go back to paper PMC10107140, “Preparative‐Scale Biocatalytic Oxygenation of N‐Heterocycles with a Lyophilized Peroxygenase Catalyst” (Angewandte Chemie (International Ed. in English), 2022).

T1 sequence (B9W4V6 44-371 V100A/L110F/V118I/I291V/F354L): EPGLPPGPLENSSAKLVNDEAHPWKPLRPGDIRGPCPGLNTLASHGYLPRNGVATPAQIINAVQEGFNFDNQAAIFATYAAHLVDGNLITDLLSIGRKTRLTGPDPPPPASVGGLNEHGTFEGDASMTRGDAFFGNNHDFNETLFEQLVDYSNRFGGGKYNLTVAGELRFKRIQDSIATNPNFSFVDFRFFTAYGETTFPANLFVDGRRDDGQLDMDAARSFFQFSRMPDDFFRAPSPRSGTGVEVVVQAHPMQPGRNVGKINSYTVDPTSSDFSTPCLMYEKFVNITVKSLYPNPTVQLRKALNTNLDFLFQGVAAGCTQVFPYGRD

For orientation: IC50 means the concentration that inhibits the measured activity by half. A high value points to a need for much substance. The compound `CCc1ccncc1` [compound 6, 4-ethylpyridine] showed an IC50 in experiment [1] of 16 µM.
Consider `CCc1cccnc1` [compound 10, 3-ethylpyridine], for which the IC50 in experiment [2] came out at 700 µM.
`CCc1ccccn1` [compound 14, 2-ethylpyridine] registered a half-maximal inhibitory concentration (IC50) in experiment [3] of 29.5 mM.
